Results on 14 compounds are retold here after patent US20100075926A1, “ACTIVATION OF HISTONE DEACETYLASE 1 (HDAC1) PROTECTS AGAINST DNA DAMAGE AND INCREASES NEURONAL SURVIVAL” (priority 2008, published 2010).

Format in all cases: biochemical
One experiment deals with T1, recombinant human HDAC5 (Homo sapiens, UniProt Q9UQL6).
T1 construct: purchased BPS Biosciences
Description: 384-well fluorometric deacetylase assay (substrate MAZ1675), HDAC5. Conditions: for HDAC5 slope: rate of reaction (slope), DMSO control 50401; for % HDAC5 activ: slope normalized to mean of DMSO control (DMSO = 1.00). The text has this:
(§1) TCEP was omitted from the assay buffer. Rates of reactions (slopes) were normalized to the mean of DMSO control treatments for each enzyme on each plate. Bradner J E, West N, Grachan M L, Greenberg E F, Haggarty S J, Mazitsheck. Nature Chemical Biology (under review). Bradner J E, West N, Grachan M L, Greenberg E F, Haggarty S J, Mazitsheck. Chemical Phylogenetics of Histone Deacetylases. […] Z

For the next experiment, the target named is T2, recombinant human HDAC3 (Homo sapiens, UniProt O15379).
T2 construct: purchased BPS Biosciences
Description: 384-well fluorometric deacetylase assay (substrate MAZ1600), HDAC3. Conditions: for HDAC3 slope: rate of reaction (slope), DMSO control 54625; for % HDAC3 Activ: slope normalized to mean of DMSO control (DMSO = 1.00).
From the text: as §1

A further experiment addresses T3, recombinant human HDAC1 (Homo sapiens, UniProt Q13547).
T3 construct: purchased BPS Biosciences
Description: 384-well fluorometric deacetylase assay (substrate MAZ1600), HDAC1. To be noted: for Classification: class assigned from the HDAC1, 2, 3, 5 panel; for HDAC1 slope: rate of reaction (slope), DMSO control 37787; for % HDAC1 Activ: slope normalized to mean of DMSO control (DMSO = 1.00). Also noted: % HDAC1 Activ: unit not given here.
From the text: as §1

The next experiment concerns the target T4, recombinant human HDAC2 (Homo sapiens, UniProt Q92769).
T4 construct: purchased BPS Biosciences
Description: 384-well fluorometric deacetylase assay (substrate MAZ1600), HDAC2. To be noted: for HDAC2 slope: rate of reaction (slope), DMSO control 40839; for % HDAC2 Activ: slope normalized to mean of DMSO control (DMSO = 1.00).
From the text: as §1

T2 sequence (O15379 whole entry): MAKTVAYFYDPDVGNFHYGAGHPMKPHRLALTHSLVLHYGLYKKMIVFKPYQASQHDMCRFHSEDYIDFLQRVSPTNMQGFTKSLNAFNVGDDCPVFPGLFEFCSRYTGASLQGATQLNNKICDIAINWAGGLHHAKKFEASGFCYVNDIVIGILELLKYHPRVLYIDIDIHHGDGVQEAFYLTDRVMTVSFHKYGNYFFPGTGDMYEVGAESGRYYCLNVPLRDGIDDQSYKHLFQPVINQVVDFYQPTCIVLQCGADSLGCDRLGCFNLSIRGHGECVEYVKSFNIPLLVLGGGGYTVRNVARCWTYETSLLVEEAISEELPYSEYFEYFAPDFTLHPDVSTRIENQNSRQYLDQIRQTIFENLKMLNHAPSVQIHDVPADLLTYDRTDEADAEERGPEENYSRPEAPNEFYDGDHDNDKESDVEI
T2 sequence (Q9Y618 395-489 partner limits assumed): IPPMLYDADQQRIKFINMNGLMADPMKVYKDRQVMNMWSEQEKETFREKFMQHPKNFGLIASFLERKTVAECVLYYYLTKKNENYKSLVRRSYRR
T3 sequence (Q13547 whole entry): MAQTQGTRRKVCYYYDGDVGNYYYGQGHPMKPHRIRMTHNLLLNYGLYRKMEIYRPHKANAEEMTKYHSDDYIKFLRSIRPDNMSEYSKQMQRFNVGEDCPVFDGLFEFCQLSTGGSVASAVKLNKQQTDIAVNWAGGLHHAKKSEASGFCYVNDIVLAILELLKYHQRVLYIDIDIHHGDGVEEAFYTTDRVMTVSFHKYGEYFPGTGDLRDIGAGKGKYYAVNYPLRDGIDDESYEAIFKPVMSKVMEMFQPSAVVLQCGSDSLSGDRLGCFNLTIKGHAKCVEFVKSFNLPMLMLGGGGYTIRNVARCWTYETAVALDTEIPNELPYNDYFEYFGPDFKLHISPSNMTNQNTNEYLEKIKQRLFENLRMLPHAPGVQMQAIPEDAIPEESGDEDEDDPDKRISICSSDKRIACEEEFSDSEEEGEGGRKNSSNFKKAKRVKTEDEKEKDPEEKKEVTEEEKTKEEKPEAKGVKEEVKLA
T1 sequence (Q9UQL6 whole entry): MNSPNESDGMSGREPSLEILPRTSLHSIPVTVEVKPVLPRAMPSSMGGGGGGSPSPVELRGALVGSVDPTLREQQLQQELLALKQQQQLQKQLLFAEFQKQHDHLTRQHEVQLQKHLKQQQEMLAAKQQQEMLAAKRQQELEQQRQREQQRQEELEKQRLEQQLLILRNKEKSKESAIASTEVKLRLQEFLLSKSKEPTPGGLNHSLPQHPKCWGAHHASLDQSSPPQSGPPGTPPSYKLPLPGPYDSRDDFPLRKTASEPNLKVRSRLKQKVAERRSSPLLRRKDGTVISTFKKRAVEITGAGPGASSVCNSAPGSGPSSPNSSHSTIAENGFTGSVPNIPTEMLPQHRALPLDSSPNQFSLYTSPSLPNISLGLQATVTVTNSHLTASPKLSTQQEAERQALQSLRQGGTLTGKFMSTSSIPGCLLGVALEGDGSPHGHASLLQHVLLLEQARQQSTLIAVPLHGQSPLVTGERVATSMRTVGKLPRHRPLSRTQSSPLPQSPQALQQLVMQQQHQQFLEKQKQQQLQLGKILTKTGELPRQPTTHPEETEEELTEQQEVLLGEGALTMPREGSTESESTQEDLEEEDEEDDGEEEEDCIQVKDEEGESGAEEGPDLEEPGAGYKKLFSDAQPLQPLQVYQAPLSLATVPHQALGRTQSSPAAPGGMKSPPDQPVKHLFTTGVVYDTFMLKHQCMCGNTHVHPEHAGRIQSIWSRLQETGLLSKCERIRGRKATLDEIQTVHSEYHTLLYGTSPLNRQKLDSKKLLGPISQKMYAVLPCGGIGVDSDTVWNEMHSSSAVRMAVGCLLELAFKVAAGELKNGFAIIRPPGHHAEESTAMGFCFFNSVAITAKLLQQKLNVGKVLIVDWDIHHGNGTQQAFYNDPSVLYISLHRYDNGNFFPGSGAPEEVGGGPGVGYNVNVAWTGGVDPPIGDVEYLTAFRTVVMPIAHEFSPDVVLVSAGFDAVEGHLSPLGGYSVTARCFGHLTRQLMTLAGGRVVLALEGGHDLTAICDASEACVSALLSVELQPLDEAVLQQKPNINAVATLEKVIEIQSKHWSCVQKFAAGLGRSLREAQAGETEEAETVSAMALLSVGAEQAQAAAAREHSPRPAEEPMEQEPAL
T4 sequence (Q92769 whole entry): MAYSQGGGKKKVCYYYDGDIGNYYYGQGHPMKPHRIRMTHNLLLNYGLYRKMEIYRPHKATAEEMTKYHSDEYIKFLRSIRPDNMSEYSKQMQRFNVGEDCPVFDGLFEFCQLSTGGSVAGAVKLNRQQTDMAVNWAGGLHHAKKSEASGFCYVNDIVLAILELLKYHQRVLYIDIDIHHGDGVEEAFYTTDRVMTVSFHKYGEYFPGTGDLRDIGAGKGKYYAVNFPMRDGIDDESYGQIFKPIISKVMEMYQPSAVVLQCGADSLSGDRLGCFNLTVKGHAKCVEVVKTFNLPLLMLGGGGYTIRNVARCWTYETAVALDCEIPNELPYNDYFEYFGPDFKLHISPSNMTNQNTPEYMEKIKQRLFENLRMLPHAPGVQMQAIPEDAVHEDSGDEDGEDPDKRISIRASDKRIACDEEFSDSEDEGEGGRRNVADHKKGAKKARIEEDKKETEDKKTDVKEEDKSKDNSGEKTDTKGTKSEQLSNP

With `NC(C(=O)O)c1nnn[nH]1` (racemic), the HDAC5 slope at recombinant human HDAC5 is 45589. Further, the HDAC3 slope on recombinant human HDAC3 is 56930. At recombinant human HDAC1, the Classification result was “HDAC1 activator” and the HDAC1 slope was found to be 40343. Besides, at recombinant human HDAC2, the HDAC2 slope is 42215.

Consider `NCC(CC(=O)O)c1ccc(Cl)s1` (racemic) [(+-)-4-amino-3-(5-chloro-2-thienyl)-butanoic acid], for which, on recombinant human HDAC5, the HDAC5 slope is given as 50272 and the “% HDAC5 activ” value stood at 100%. Moreover, at recombinant human HDAC3, the HDAC3 slope is listed as 54049 and the “% HDAC3 Activ” value is on record as 0.99 fraction of DMSO control. On recombinant human HDAC1, the Classification result is on record as “HDAC1 activator”, the HDAC1 slope came out at 40239 and the “% HDAC1 Activ” value is listed as 1.06. For the same compound, at recombinant human HDAC2, the HDAC2 slope is 40008 and the “% HDAC2 Activ” value is reported as 0.98 fraction of DMSO control.

With `CC1(C)S[C@@H]2[C@H](NC(=O)[C@H](N)c3ccccc3)C(=O)N2[C@H]1C(=O)O` [Ampicillin trihydrate], at recombinant human HDAC5, the HDAC5 slope is 46606. Also, at recombinant human HDAC3, the HDAC3 slope is reported as 56660. Moreover, on recombinant human HDAC1, the Classification entry is “HDAC1 & HDAC3 activator” and the HDAC1 slope came to 40160. Besides, the HDAC2 slope at recombinant human HDAC2 is 43966.

Take `O=C(O)[C@H]1C[C@@H](CP(=O)(O)O)CCN1` [CGS 19755]: the HDAC5 slope at recombinant human HDAC5 was determined as 48280. Besides, the HDAC3 slope on recombinant human HDAC3 was 57057. Besides, at recombinant human HDAC1, the Classification result is “HDAC1 activator” and the HDAC1 slope was determined as 41839. Moreover, at recombinant human HDAC2, the HDAC2 slope worked out at 42301.

As for `N[C@H](CC(=O)O)C(=O)O` [D- ASPARTIC ACID, D-aspartic acid], the HDAC5 slope on recombinant human HDAC5 is 45291. Moreover, the HDAC3 slope at recombinant human HDAC3 was 54899. Moreover, at recombinant human HDAC1, the Classification entry is recorded as “HDAC1 activator” and the HDAC1 slope worked out at 40655. Besides, the HDAC2 slope on recombinant human HDAC2 stood at 42016.

As to `CC(O)(P(=O)([O-])O)P(=O)([O-])O.[Na+].[Na+]` [Etidronic acid, disodium salt], the HDAC5 slope on recombinant human HDAC5 was 51711. Moreover, the HDAC3 slope at recombinant human HDAC3 is reported as 58286. Moreover, at recombinant human HDAC1, the Classification entry is “HDAC1 & HDAC3 activator” and the HDAC1 slope was 40241. Further, on recombinant human HDAC2, the HDAC2 slope was determined as 41315.

`O=C(O)[C@@H]1C[C@H]2C[C@@H](CP(=O)(O)O)CC[C@H]2CN1` [LY 235959]: the HDAC5 slope on recombinant human HDAC5 worked out at 43688. Further, the HDAC3 slope on recombinant human HDAC3 is on record as 65435. On recombinant human HDAC1, the Classification result is “HDAC1 & HDAC3 activator” and the HDAC1 slope was determined as 40893. Also, the HDAC2 slope at recombinant human HDAC2 was determined as 42923.

With `C[C@H](N)[C@H](O)c1ccc(O)c(O)c1` [Levonordefrin], the HDAC5 slope on recombinant human HDAC5 came to 47752. In addition, on recombinant human HDAC3, the HDAC3 slope was determined as 62457. Besides, at recombinant human HDAC1, the Classification entry is “HDAC1 & HDAC3 activator” and the HDAC1 slope is on record as 40405. Moreover, at recombinant human HDAC2, the HDAC2 slope worked out at 40182.

In the case of `C[C@](N)(Cc1ccc(O)c(O)c1)C(=O)O` [Methyldopa (L,-)], the HDAC5 slope at recombinant human HDAC5 was 56516. At recombinant human HDAC3, the HDAC3 slope is on record as 60891. For the same compound, on recombinant human HDAC1, the Classification result is on record as “HDAC1 & HDAC3 activator” and the HDAC1 slope came to 40553. Also, the HDAC2 slope on recombinant human HDAC2 is given as 42153.

With `CCN(CC)CCc1nc(-c2ccccc2)no1.O=C(O)CC(O)(CC(=O)O)C(=O)O` [Oxalamine citrate salt], the HDAC5 slope on recombinant human HDAC5 was found to be 47216. The HDAC3 slope on recombinant human HDAC3 amounted to 60752. At recombinant human HDAC1, the Classification entry is “HDAC1 & HDAC3 activator” and the HDAC1 slope amounted to 40700. For the same compound, the HDAC2 slope on recombinant human HDAC2 stood at 41269.

On to `COc1cc([C@@H]2c3cc4c(cc3[C@H](O)[C@H]3COC(=O)[C@H]23)OCO4)cc(OC)c1OC` [Podophyllo toxin, podophyllotoxin], for which the HDAC5 slope at recombinant human HDAC5 was 54734. Also, the HDAC3 slope on recombinant human HDAC3 is 53416. Further, on recombinant human HDAC1, the Classification result is “HDAC1 activator” and the HDAC1 slope was 40983. Moreover, on recombinant human HDAC2, the HDAC2 slope is 39197.

With `Oc1cc2c(c(Cl)c1O)CCNC[C@@H]2c1ccccc1` [R(+)-SKF- 81297], the HDAC5 slope at recombinant human HDAC5 is recorded as 48294. In addition, the HDAC3 slope on recombinant human HDAC3 was 66733. At recombinant human HDAC1, the Classification result was “HDAC1 & HDAC3 activator” and the HDAC1 slope amounted to 40201. The HDAC2 slope on recombinant human HDAC2 worked out at 42197.

On to `CP(=O)(O)CCCN` [SK&F 97541], for which, on recombinant human HDAC5, the HDAC5 slope came out at 49250. Moreover, the HDAC3 slope at recombinant human HDAC3 is on record as 54915. On recombinant human HDAC1, the Classification result is given as “HDAC1 activator” and the HDAC1 slope is given as 40213. For the same compound, the HDAC2 slope on recombinant human HDAC2 is reported as 39881.

Take “phenazopyridine hydrochloride [Phenazo- pyridine hydrochloride]”: on recombinant human HDAC5, the HDAC5 slope came to 54125 and the “% HDAC5 activ” value worked out at 107%. Moreover, on recombinant human HDAC3, the HDAC3 slope is listed as 56613 and the “% HDAC3 Activ” value was 1.04 fraction of DMSO control. Also, on recombinant human HDAC1, the Classification entry is “HDAC1 activator”, the HDAC1 slope came out at 40631 and the “% HDAC1 Activ” value stood at 1.08. At recombinant human HDAC2, the HDAC2 slope worked out at 42470 and the “% HDAC2 Activ” value is given as 1.04 fraction of DMSO control.
